Measured values published in patent publication US20090082203A1, “INSECTICIDAL BIS(SUBSTITUTED PHENYL)-1-{[4-(SATURATED HETEROCYCLYL-SUBSTITUTED)PHENYLMETHYL]- (4-PIPERIDYL)}METHANE DERIVATIVES” (priority 2004, published 2009).

System: tobacco budworm (Heliothis virescens [Fabricius])
Assay: surface-treated diet test against tobacco budworm
Assay type: in vivo
Conditions: 0.25 millimolar on the surface of the diet, second instar larvae, five-day exposure; for Percent Mortality: compared to the total number of insects infested; for Percent Growth Inhibition: inhibition of insect weight relative to untreated controls
Method: Candidate insecticides were evaluated for activity against the tobacco budworm (Heliothis virescens [Fabricius]) in a surface-treated diet test.
In this test one mL of molten (65-70° C.) wheat germ-based artificial diet was pipetted into each well of a four by six (24 well) multi-well plate (ID# 430345-15.5 mm dia.×17.6 mm deep; Corning Costar Corp., One Alewife Center, Cambridge, Mass. 02140). The diet was allowed to cool to ambient temperature before treatment with candidate insecticide.
For a determination of insecticidal activity, solutions of the candidate insecticides were prepared for testing using a Packard 204DT Multiprobe® Robotic System (Packard Instrument Company, 800 Research Parkway, Meriden, Conn. 06450), in which the robot first diluted a standard 50 millimolar DMSO solution of candidate insecticide with a 1:1 water/acetone solution (V/V) in a ratio of 1:7 stock solution to water/acetone. The robot subsequently pipetted 40 microliters of the so-prepared solution onto the surface of the diet in each of three wells in the 24 multi-well plate. The process was repeated with solutions of seven other candidate insecticides. Once treated, the contents of the multi-well plate were allowed to dry, leaving 0.25 millimoles of candidate insecticide on the surface of the diet, or a concentration of 0.25 millimolar. Appropriate untreated controls containing only DMSO on the diet surface were also included in this test.
For evaluations of the insecticidal activity of a candidate insecticide at varying rates of application, the test was established as described above using sub-multiples of the standard 50 millimolar DMSO solution of candidate insecticide. For example, the standard 50 millimolar solution was diluted by the robot with DMSO to give 5, 0.5, 0.05, 0.005, 0.0005 millimolar, or more dilute solutions of the candidate insecticide. In these evaluations there were six replicates of each rate of application placed on the surface of the diet in the 24 multi-well plate, for a total of four rates of application of candidate insecticide in each plate.
In each well of the test plate was placed one second instar tobacco budworm larvae, each weighing approximately five milligrams. After the larvae were placed in each well, the plate was sealed with clear polyfilm adhesive tape. The tape over each well was perforated to ensure an adequate air supply. The plates were then held in a growth chamber at 25° C. and 60% relative humidity for five days (light 14 hours/day).
After the five-day exposure period insecticidal activity for each rate of application of candidate insecticide was assessed as percent inhibition of insect weight relative to the weight of insects from untreated controls, and percent mortality when compared to the total number of insects infested.
The test compounds of formula I are identified by numbers that correspond to those in Table 1.

Structure (SMILES)	Percent Mortality [%]	Percent Growth Inhibition [%]
CC(C)(C)C1COC(c2ccc(CN3CCC(C(O)(c4ccc(OC(F)(F)F)cc4)c4ccc(OC(F)(F)F)cc4)CC3)cc2)O1 (stereo not drawn) [Compound 50]	100	100
COCC1COC(c2ccc(CN3CCC(C(O)(c4ccc(OC(F)(F)F)cc4)c4ccc(OC(F)(F)F)cc4)CC3)cc2)O1 (stereo not drawn) [Compound 51]	100	100
C=CC1COC(c2ccc(CN3CCC(C(O)(c4ccc(OC(F)(F)F)cc4)c4ccc(OC(F)(F)F)cc4)CC3)cc2)O1 (stereo not drawn) [Compound 52]	100	100
OC(c1ccc(OC(F)(F)F)cc1)(c1ccc(OC(F)(F)F)cc1)C1CCN(Cc2ccc(C3OCC(c4ccccc4)O3)cc2)CC1 (stereo not drawn) [Compound 53]	100	100
OC(c1ccc(OC(F)(F)F)cc1)(c1ccc(OC(F)(F)F)cc1)C1CCN(Cc2ccc(C3OCCC(c4ccccc4)O3)cc2)CC1 (stereo not drawn) [Compound 55]	100	100
OC(c1ccc(OC(F)(F)F)cc1)(c1ccc(OC(F)(F)F)cc1)C1CCN(Cc2ccc(C3(c4ccccc4)OCCO3)cc2)CC1 [Compound 57]	100	100
OC(c1ccc(OC(F)(F)F)cc1)(c1ccc(OC(F)(F)F)cc1)C1CCN(Cc2ccc(C3OCC=CCO3)cc2)CC1 [Compound 58]	100	100
CCCCN1CCSC1c1ccc(CN2CCC(C(O)(c3ccc(OC(F)(F)F)cc3)c3ccc(OC(F)(F)F)cc3)CC2)cc1 (stereo not drawn) [Compound 59]	100	100
[O-][N+]1(Cc2ccc(C3OCC(c4ccccc4)O3)cc2)CCC(C(O)(c2ccc(OC(F)(F)F)cc2)c2ccc(OC(F)(F)F)cc2)CC1 (stereo not drawn) [Compound 60]	100	100
COCC1COC(c2ccc(C[N+]3([O-])CCC(C(O)(c4ccc(OC(F)(F)F)cc4)c4ccc(OC(F)(F)F)cc4)CC3)cc2)O1 (stereo not drawn) [Compound 61]	100	100
CCC1COC(c2ccc(C[N+]3([O-])CCC(C(O)(c4ccc(OC(F)(F)F)cc4)c4ccc(OC(F)(F)F)cc4)CC3)cc2)O1 (stereo not drawn) [Compound 62]	100	100
[O-][N+]1(Cc2ccc(C3OCC=CCO3)cc2)CCC(C(O)(c2ccc(OC(F)(F)F)cc2)c2ccc(OC(F)(F)F)cc2)CC1 (stereo not drawn) [Compound 63]	100	100
[O-][N+]1(Cc2ccc(C3(Cc4ccccc4)OCCO3)cc2)CCC(C(O)(c2ccc(OC(F)(F)F)cc2)c2ccc(OC(F)(F)F)cc2)CC1 (stereo not drawn) [Compound 65]	67	100
OC(c1ccc(OC(F)(F)F)cc1)(c1ccc(OC(F)(F)F)cc1)C1CCN(Cc2ccc(C3(Cc4ccccc4)OCCO3)cc2)CC1 [Compound 66]	67	100
[O-][N+]1(Cc2ccc(C3(COc4ccccc4)OCCO3)cc2)CCC(C(O)(c2ccc(OC(F)(F)F)cc2)c2ccc(OC(F)(F)F)cc2)CC1 (stereo not drawn) [Compound 67]	100	100
CC1CCOC(c2ccc(C[N+]3([O-])CCC(C(O)(c4ccc(OC(F)(F)F)cc4)c4ccc(OC(F)(F)F)cc4)CC3)cc2)O1 (stereo not drawn) [Compound 68]	100	100
CC1(C)CCOC(c2ccc(CN3CCC(C(O)(c4ccc(OC(F)(F)F)cc4)c4ccc(OC(F)(F)F)cc4)CC3)cc2)O1 (stereo not drawn) [Compound 69]	100	100
CC1(C)CCOC(c2ccc(C[N+]3([O-])CCC(C(O)(c4ccc(OC(F)(F)F)cc4)c4ccc(OC(F)(F)F)cc4)CC3)cc2)O1 (stereo not drawn) [Compound 70]	100	100
CC(=O)N1CCSC1c1ccc(CN2CCC(C(O)(c3ccc(OC(F)(F)F)cc3)c3ccc(OC(F)(F)F)cc3)CC2)cc1 (stereo not drawn) [Compound 71]	33	100
CCCC1COC(c2ccc(CN3CCC(C(O)(c4ccc(OC(F)(F)F)cc4)c4ccc(OC(F)(F)F)cc4)CC3)cc2)O1 (stereo not drawn) [Compound 72]	100	100

Structure (SMILES)	Percent Mortality [%]	Percent Growth Inhibition [%]
CN(C)C(=O)N1CCSC1c1ccc(CN2CCC(C(O)(c3ccc(OC(F)(F)F)cc3)c3ccc(OC(F)(F)F)cc3)CC2)cc1 (stereo not drawn) [Compound 73]	100	100
CCCC1COC(c2ccc(C[N+]3([O-])CCC(C(O)(c4ccc(OC(F)(F)F)cc4)c4ccc(OC(F)(F)F)cc4)CC3)cc2)O1 (stereo not drawn) [Compound 74]	100	100
CC1(C)OCC(c2ccc(CN3CCC(C(O)(c4ccc(OC(F)(F)F)cc4)c4ccc(OC(F)(F)F)cc4)CC3)cc2)O1 (stereo not drawn) [Compound 76]	100	100
CC1(C)OCC(c2ccc(C[N+]3([O-])CCC(C(O)(c4ccc(OC(F)(F)F)cc4)c4ccc(OC(F)(F)F)cc4)CC3)cc2)O1 (stereo not drawn) [Compound 77]	100	100
CC1CC(C)(C)OC(c2ccc(CN3CCC(C(O)(c4ccc(OC(F)(F)F)cc4)c4ccc(OC(F)(F)F)cc4)CC3)cc2)O1 (stereo not drawn) [Compound 78]	100	100
[O-][N+]1(Cc2ccc(C3OCCC(c4ccccc4)O3)cc2)CCC(C(O)(c2ccc(OC(F)(F)F)cc2)c2ccc(OC(F)(F)F)cc2)CC1 (stereo not drawn) [Compound 79]	100	100
CC1CC(C)(C)OC(c2ccc(C[N+]3([O-])CCC(C(O)(c4ccc(OC(F)(F)F)cc4)c4ccc(OC(F)(F)F)cc4)CC3)cc2)O1 (stereo not drawn) [Compound 80]	100	100
OC(c1ccc(OC(F)(F)F)cc1)(c1ccc(OC(F)(F)F)cc1)C1CCN(Cc2ccc(C3(c4ccc(Cl)nc4)OCCO3)cc2)CC1 [Compound 83]	0	31
OC(c1ccc(OC(F)(F)F)cc1)(c1ccc(OC(F)(F)F)cc1)C1CCN(Cc2ccc(C3(c4cccc(Cl)c4)OCCO3)cc2)CC1 [Compound 85]	100	100
C=CC1COC(c2ccc(C[N+]3([O-])CCC(C(O)(c4ccc(OC(F)(F)F)cc4)c4ccc(OC(F)(F)F)cc4)CC3)cc2)O1 (stereo not drawn) [Compound 86]	100	100
[O-][N+]1(Cc2ccc(C3(c4ccc(Cl)nc4)OCCO3)cc2)CCC(C(O)(c2ccc(OC(F)(F)F)cc2)c2ccc(OC(F)(F)F)cc2)CC1 (stereo not drawn) [Compound 87]	17	79
COC(=O)N1CCSC1c1ccc(CN2CCC(C(O)(c3ccc(OC(F)(F)F)cc3)c3ccc(OC(F)(F)F)cc3)CC2)cc1 (stereo not drawn) [Compound 89]	100	100
CN1CCOC1c1ccc(CN2CCC(C(O)(c3ccc(OC(F)(F)F)cc3)c3ccc(OC(F)(F)F)cc3)CC2)cc1 (stereo not drawn) [Compound 90]	100	100
C=CCOCC1COC(c2ccc(CN3CCC(C(O)(c4ccc(OC(F)(F)F)cc4)c4ccc(OC(F)(F)F)cc4)CC3)cc2)O1 (stereo not drawn) [Compound 91]	100	100
OC(c1ccc(OC(F)(F)F)cc1)(c1ccc(OC(F)(F)F)cc1)C1CCN(Cc2ccc(C3OCC(COc4ccccc4)O3)cc2)CC1 (stereo not drawn) [Compound 92]	100	100
C=CCOCC1COC(c2ccc(C[N+]3([O-])CCC(C(O)(c4ccc(OC(F)(F)F)cc4)c4ccc(OC(F)(F)F)cc4)CC3)cc2)O1 (stereo not drawn) [Compound 93]	100	100
[O-][N+]1(Cc2ccc(C3OCC(COc4ccccc4)O3)cc2)CCC(C(O)(c2ccc(OC(F)(F)F)cc2)c2ccc(OC(F)(F)F)cc2)CC1 (stereo not drawn) [Compound 94]	100	100
O=C(NCC1COC(c2ccc(CN3CCC(C(O)(c4ccc(OC(F)(F)F)cc4)c4ccc(OC(F)(F)F)cc4)CC3)cc2)O1)OCc1ccccc1 (stereo not drawn) [Compound 95]	100	100
CC(C)N1CCOC1c1ccc(CN2CCC(C(O)(c3ccc(OC(F)(F)F)cc3)c3ccc(OC(F)(F)F)cc3)CC2)cc1 (stereo not drawn) [Compound 97]	50	100
